The values below come from patent US11207269B2, “Medical use of sPLA2 hydrolysable liposomes” (priority 2009, dated 2021).

The conditions of data set [1]: comparison value for cisplatin, within 3 hours; cited from earlier work.
For data set [2], the system named is human breast carcinoma cell line MT-3. Nature of the data set: Efficacy in mice: MT-3 breast xenografts on nude mice. The format is in vivo, NMRI nude female mice. As to conditions: 4 mg/kg/inj. weekly i.v.; treated tumors divided with control tumors; Cisplatin at day 31, LiPlaCis at day 26. The procedure: NMRI nude female mice (6-8 weeks) were inoculated subcutaneously into the left flank with 1*10^7 cells of the human breast carcinoma cell line MT-3. Only mice carrying exponentially growing tumors were selected for the study. […] Tumor growth was assessed three times a week by measuring two perpendicular diameters and tumor growth was normalized for differing starting sizes by calculating relative tumor volume. Body weight was measured three times a week. Blood samples were taken four days after the first injection to estimate white blood cells and thrombocytes by Coulter counter.

Structures are written as SMILES.

With `N.N.[Cl][Pt][Cl]` [Cisplatin, cisplatin], the urinary excretion result in data set [1] is recorded as “above 90%”. Also, the “Optimum T/C (%) [at day]” value in data set [2] is on record as 71%.
